Values joined by “and” are separate entries in the source; they are usually repeats but may differ in a detail not shown here. Equal entries are not always repeated.
Tested on: patients with MUM
Experiment: Adverse events suspected to be study drug related (NCI-CTCAE v4.03)
Format: in vivo, human
Conditions: for Alanine aminotransferase increased / Aspartate aminotransferase increased / Asthenia / Blood creatinine increased / Constipation / Diarrhoea / Dry skin / Fatigue / Hypotension / Nausea / Number of patients with ≥1 adverse event / Rash / Vomiting: suspected drug related
Method: Routine safety assessments, including laboratory assessments, physical examinations, vital signs and electrocardiograms (ECGs), were conducted at regular intervals throughout the study and more frequently as needed following patient assessment by the treating physician. Adverse events (AEs) were assessed continuously according to the National Cancer Institute Common Terminology Criteria for Adverse Events (NCI-CTCAE) v4.03.

[1] = 300 mg BID (RDE), n=18, All grades
[2] = 300 mg BID (RDE), n=18, Grade ≥3
[3] = All LXS196 BID patients, n=30, All grades
[4] = All LXS196 BID patients, n=30, Grade ≥3
[5] = All LXS196 patients, N=68, All grades
[6] = All LXS196 patients, N=68, Grade ≥3

CC1(N)CCN(c2cccnc2NC(=O)c2nc(-c3ncccc3C(F)(F)F)cnc2N)CC1 [LXS196]
Dry skin, all grades (All BID): 6 (20.0) n (%) | Dry skin, grade ≥3 (All BID): 0 n (%) | Fatigue, all grades (All BID): 4 (13.3) n (%) | Fatigue, grade ≥3 (All BID): 0 n (%) | Hypotension, all grades (All BID): 7 (23.3) n (%) | Nausea, all grades (All BID): 19 (63.3) n (%) | Nausea, grade ≥3 (All BID): 0 n (%) | Patients with ≥1 AE, all grades (All BID): 28 (93.3) n (%) | Patients with ≥1 AE, grade ≥3 (All BID): 6 (20.0) n (%) | Rash, all grades (All BID): 5 (16.7) n (%) | Rash, grade ≥3 (All BID): 0 n (%) | Vomiting, all grades (All BID): 9 (30.0) n (%) | Vomiting, grade ≥3 (All BID): 0 n (%) | ALT increased, all grades (All QD): 7 (18.4) n (%) | ALT increased, grade ≥3 (All QD): 2 (5.3) n (%) | AST increased, all grades (All QD): 5 (13.2) n (%) | AST increased, grade ≥3 (All QD): 2 (5.3) n (%) | Asthenia, all grades (All QD): 6 (15.8) n (%) | Asthenia, grade ≥3 (All QD): 0 n (%) | Blood creatinine increased, all grades (All QD): 2 (5.3) n (%) | Blood creatinine increased, grade ≥3 (All QD): 0 n (%) | Constipation, all grades (All QD): 4 (10.5) n (%) | Constipation, grade ≥3 (All QD): 0 n (%) | Diarrhoea, all grades (All QD): 15 (39.5) n (%) | Diarrhoea, grade ≥3 (All QD): 0 n (%) | Dry skin, all grades (All QD): 2 (5.3) n (%) | Dry skin, grade ≥3 (All QD): 0 n (%) | Fatigue, all grades (All QD): 10 (26.3) n (%) | Fatigue, grade ≥3 (All QD): 0 n (%) | Hypotension, all grades (All QD): 8 (21.1) n (%) | Nausea, all grades (All QD): 26 (68.4) n (%) | Nausea, grade ≥3 (All QD): 1 (2.6) n (%) | Patients with ≥1 AE, all grades (All QD): 35 (92.1) n (%) | Patients with ≥1 AE, grade ≥3 (All QD): 11 (28.9) n (%) | Rash, all grades (All QD): 3 (7.9) n (%) | Rash, grade ≥3 (All QD): 0 n (%) | Vomiting, all grades (All QD): 12 (31.6) n (%) | Vomiting, grade ≥3 (All QD): 1 (2.6) n (%) | ALT increased, all grades (All patients): 15 (22.1) n (%) | ALT increased, grade ≥3 (All patients): 4 (5.9) n (%) | AST increased, all grades (All patients): 11 (16.2) n (%) | AST increased, grade ≥3 (All patients): 4 (5.9) n (%) | Asthenia, all grades (All patients): 13 (19.1) n (%) | Asthenia, grade ≥3 (All patients): 0 n (%) | Blood creatinine increased, all grades (All patients): 7 (10.3) n (%) | Blood creatinine increased, grade ≥3 (All patients): 0 n (%) | Constipation, all grades (All patients): 7 (10.3) n (%) | Constipation, grade ≥3 (All patients): 0 n (%) | Diarrhoea, all grades (All patients): 31 (45.6) n (%) | Diarrhoea, grade ≥3 (All patients): 1 (1.5) n (%) | Dry skin, all grades (All patients): 8 (11.8) n (%) | Dry skin, grade ≥3 (All patients): 0 n (%) | Fatigue, all grades (All patients): 14 (20.6) n (%) | Fatigue, grade ≥3 (All patients): 0 n (%) | Hypotension, all grades (All patients): 15 (22.1) n (%) | Hypotension, grade ≥3 (All patients): 6 (8.8) n (%) | Nausea, all grades (All patients): 45 (66.2) n (%) | Nausea, grade ≥3 (All patients): 1 (1.5) n (%) | Patients with ≥1 AE, all grades (All patients): 63 (92.6%) n (%) and 63 (92.6) n (%) | Patients with ≥1 AE, grade ≥3 (All patients): 17 (25.0%) n (%) and 17 (25.0) n (%) | Rash, all grades (All patients): 8 (11.8) n (%) | Rash, grade ≥3 (All patients): 0 n (%) | Vomiting, all grades (All patients): 21 (30.9) n (%) | Vomiting, grade ≥3 (All patients): 1 (1.5) n (%) | Alanine aminotransferase increased (200 mg BID, n=6, All grades): 0 n (%) | Aspartate aminotransferase increased (200 mg BID, n=6, All grades): 0 n (%) | Asthenia (200 mg BID, n=6, All grades): 1 (16.7) n (%) | Blood creatinine increased (200 mg BID, n=6, All grades): 3 (50.0) n (%) | Constipation (200 mg BID, n=6, All grades): 0 n (%) | Diarrhoea (200 mg BID, n=6, All grades): 2 (33.3) n (%) | Dry skin (200 mg BID, n=6, All grades): 1 (16.7) n (%) | Fatigue (200 mg BID, n=6, All grades): 0 n (%) | Hypotension (200 mg BID, n=6, All grades): 0 n (%) | Nausea (200 mg BID, n=6, All grades): 2 (33.3) n (%) | Number of patients with ≥1 adverse event (200 mg BID, n=6, All grades): 5 (83.3) n (%) | Rash (200 mg BID, n=6, All grades): 0 n (%) | Vomiting (200 mg BID, n=6, All grades): 0 n (%) | Alanine aminotransferase increased (200 mg BID, n=6, Grade ≥3): 0 n (%) | Aspartate aminotransferase increased (200 mg BID, n=6, Grade ≥3): 0 n (%) | Asthenia (200 mg BID, n=6, Grade ≥3): 0 n (%) | Blood creatinine increased (200 mg BID, n=6, Grade ≥3): 0 n (%) | Constipation (200 mg BID, n=6, Grade ≥3): 0 n (%) | Diarrhoea (200 mg BID, n=6, Grade ≥3): 0 n (%) | Dry skin (200 mg BID, n=6, Grade ≥3): 0 n (%) | Fatigue (200 mg BID, n=6, Grade ≥3): 0 n (%) | Hypotension (200 mg BID, n=6, Grade ≥3): 0 n (%) | Nausea (200 mg BID, n=6, Grade ≥3): 0 n (%) | Number of patients with ≥1 adverse event (200 mg BID, n=6, Grade ≥3): 0 n (%) | Rash (200 mg BID, n=6, Grade ≥3): 0 n (%) | Vomiting (200 mg BID, n=6, Grade ≥3): 0 n (%) | Alanine aminotransferase increased [1]: 5 (27.8) n (%) | Aspartate aminotransferase increased [1]: 3 (16.7) n (%) | Asthenia [1]: 4 (22.2) n (%) | Blood creatinine increased [1]: 2 (11.1) n (%) | Constipation [1]: 1 (5.6) n (%) | Diarrhoea [1]: 11 (61.1) n (%) | Dry skin [1]: 4 (22.2) n (%) | Fatigue [1]: 3 (16.7) n (%) | Hypotension [1]: 3 (16.7) n (%) | Nausea [1]: 14 (77.8) n (%) | Number of patients with ≥1 adverse event [1]: 17 (94.4) n (%) | Rash [1]: 4 (22.2) n (%) | Vomiting [1]: 7 (38.9) n (%) | Alanine aminotransferase increased [2]: 1 (5.6) n (%) | Aspartate aminotransferase increased [2]: 1 (5.6) n (%) | Asthenia [2]: 0 n (%) | Blood creatinine increased [2]: 0 n (%) | Constipation [2]: 0 n (%) | Diarrhoea [2]: 1 (5.6) n (%) | Dry skin [2]: 0 n (%) | Fatigue [2]: 0 n (%) | Hypotension [2]: 0 n (%) | Nausea [2]: 0 n (%) | Number of patients with ≥1 adverse event [2]: 2 (11.1) n (%) | Rash [2]: 0 n (%) | Vomiting [2]: 0 n (%) | Alanine aminotransferase increased (400 mg BID, n=6, All grades): 3 (50.0) n (%) | Aspartate aminotransferase increased (400 mg BID, n=6, All grades): 3 (50.0) n (%) | Asthenia (400 mg BID, n=6, All grades): 2 (33.3) n (%) | Blood creatinine increased (400 mg BID, n=6, All grades): 0 n (%) | Constipation (400 mg BID, n=6, All grades): 2 (33.3) n (%) | Diarrhoea (400 mg BID, n=6, All grades): 3 (50.0) n (%) | Dry skin (400 mg BID, n=6, All grades): 1 (16.7) n (%) | Fatigue (400 mg BID, n=6, All grades): 1 (16.7) n (%) | Hypotension (400 mg BID, n=6, All grades): 4 (66.7) n (%) | Nausea (400 mg BID, n=6, All grades): 3 (50.0) n (%) | Number of patients with ≥1 adverse event (400 mg BID, n=6, All grades): 6 (100) n (%) | Rash (400 mg BID, n=6, All grades): 1 (16.7) n (%) | Vomiting (400 mg BID, n=6, All grades): 2 (33.3) n (%) | Alanine aminotransferase increased (400 mg BID, n=6, Grade ≥3): 1 (16.7) n (%) | Aspartate aminotransferase increased (400 mg BID, n=6, Grade ≥3): 1 (16.7) n (%) | Asthenia (400 mg BID, n=6, Grade ≥3): 0 n (%) | Blood creatinine increased (400 mg BID, n=6, Grade ≥3): 0 n (%) | Constipation (400 mg BID, n=6, Grade ≥3): 0 n (%) | Diarrhoea (400 mg BID, n=6, Grade ≥3): 0 n (%) | Dry skin (400 mg BID, n=6, Grade ≥3): 0 n (%) | Fatigue (400 mg BID, n=6, Grade ≥3): 0 n (%) | Hypotension (400 mg BID, n=6, Grade ≥3): 1 (16.7) n (%) | Nausea (400 mg BID, n=6, Grade ≥3): 0 n (%) | Number of patients with ≥1 adverse event (400 mg BID, n=6, Grade ≥3): 4 (66.7) n (%) | Rash (400 mg BID, n=6, Grade ≥3): 0 n (%) | Vomiting (400 mg BID, n=6, Grade ≥3): 0 n (%) | Alanine aminotransferase increased [3]: 8 (26.7) n (%) | Aspartate aminotransferase increased [3]: 6 (20.0) n (%) | Asthenia [3]: 7 (23.3) n (%) | Blood creatinine increased [3]: 5 (16.7) n (%) | Constipation [3]: 3 (10.0) n (%) | Diarrhoea [3]: 16 (53.3) n (%) | Dry skin [3]: 6 (20.0) n (%) | Fatigue [3]: 4 (13.3) n (%) | Hypotension [3]: 7 (23.3) n (%) | Nausea [3]: 19 (63.3) n (%) | Number of patients with ≥1 adverse event [3]: 28 (93.3) n (%) | Rash [3]: 5 (16.7) n (%) | Vomiting [3]: 9 (30.0) n (%) | Alanine aminotransferase increased [4]: 2 (6.7) n (%) | Aspartate aminotransferase increased [4]: 2 (6.7) n (%) | Asthenia [4]: 0 n (%) | Blood creatinine increased [4]: 0 n (%) | Constipation [4]: 0 n (%) | Diarrhoea [4]: 1 (3.3) n (%) | Dry skin [4]: 0 n (%) | Fatigue [4]: 0 n (%) | Hypotension [4]: 1 (3.3) n (%) | Nausea [4]: 0 n (%) | Number of patients with ≥1 adverse event [4]: 6 (20.0) n (%) | Rash [4]: 0 n (%) | Vomiting [4]: 0 n (%) | Alanine aminotransferase increased [5]: 15 (22.1) n (%) | Aspartate aminotransferase increased [5]: 11 (16.2) n (%) | Asthenia [5]: 13 (19.1) n (%) | Blood creatinine increased [5]: 7 (10.3) n (%) | Constipation [5]: 7 (10.3) n (%) | Diarrhoea [5]: 31 (45.6) n (%) | Dry skin [5]: 8 (11.8) n (%) | Fatigue [5]: 14 (20.6) n (%) | Hypotension [5]: 15 (22.1) n (%) | Nausea [5]: 45 (66.2) n (%) | Number of patients with ≥1 adverse event [5]: 63 (92.6) n (%) | Rash [5]: 8 (11.8) n (%) | Vomiting [5]: 21 (30.9) n (%) | Alanine aminotransferase increased [6]: 4 (5.9) n (%) | Aspartate aminotransferase increased [6]: 4 (5.9) n (%) | Asthenia [6]: 0 n (%) | Blood creatinine increased [6]: 0 n (%) | Constipation [6]: 0 n (%) | Diarrhoea [6]: 1 (1.5) n (%) | Dry skin [6]: 0 n (%) | Fatigue [6]: 0 n (%) | Hypotension [6]: 6 (8.8) n (%) | Nausea [6]: 1 (1.5) n (%) | Number of patients with ≥1 adverse event [6]: 17 (25.0) n (%) | Rash [6]: 0 n (%) | Vomiting [6]: 1 (1.5) n (%)
